Measured values: PubChem BioAssay AID1963853 (Molecular Pharmacology Branch, DTP, NCI, 2024)
pIC50: −log10 of the molar value.

Tested on: 266295-075-R-J1-PDC spheroid viability
Assay: Anticancer human tumor 266295-075-R-J1-PDC patient-derived head and neck squamous carcinoma cell line growth inhibition [POLQ]
Settings: spheroids with HUVEC and MSC; for pIC50: curve of first compound; for viability, T/C: stronger effect = lower value
Procedure, shortened: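 Patient-derived tumour cells were co-cultured with HUVEC and mesenchymal stem cells as multicellular spheroids at 37 °C. They were treated with POLQ inhibitors (novobiocin, ART-558, RP6685) alone or combined with other agents. Top concentrations were at or near clinical Cmax (otherwise 10 microM; SN-38 at 1 microM), decreasing in half-log steps.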

[1] = second compound 0.0316 µM, first compound 0.0316 µM
[2] = second compound 0.0316 µM, first compound 0.1 µM
[3] = second compound 0.0316 µM, first compound 0.316 µM
[4] = second compound 0.0316 µM, first compound 1 µM
[5] = second compound 0.1 µM, first compound 0.0316 µM
[6] = second compound 0.1 µM, first compound 0.1 µM
[7] = second compound 0.1 µM, first compound 0.316 µM
[8] = second compound 0.1 µM, first compound 1 µM
[9] = second compound 0.316 µM, first compound 0.0316 µM
[10] = second compound 0.316 µM, first compound 0.1 µM
[11] = second compound 0.316 µM, first compound 0.316 µM
[12] = second compound 0.316 µM, first compound 1 µM
[13] = second compound 1 µM, first compound 0.0316 µM
[14] = second compound 1 µM, first compound 0.1 µM
[15] = second compound 1 µM, first compound 0.316 µM
[16] = second compound 1 µM, first compound 1 µM
[17] = second compound 3.16 µM, first compound 0.0316 µM
[18] = second compound 3.16 µM, first compound 0.1 µM
[19] = second compound 3.16 µM, first compound 0.316 µM
[20] = second compound 3.16 µM, first compound 1 µM
[21] = second compound 10 µM, first compound 0.0316 µM
[22] = second compound 10 µM, first compound 0.1 µM
[23] = second compound 10 µM, first compound 0.316 µM
[24] = second compound 10 µM, first compound 1 µM
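Further: spheroids exposed to compounds for seven days before readout.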

COc1cccc(OCCCN)c1-c1cc(Nc2cnc(C#N)cn2)n[nH]1 + Nc1ccc(C#CCN(C(=O)Cc2ncc(C(F)(F)F)cc2C(F)(F)F)c2ccc(F)cc2)nn1
pIC50 (second compound 0.0316 µM): < 6.00 | pIC50 (second compound 0.1 µM): < 6.00 | pIC50 (second compound 0.316 µM): < 6.00 | pIC50 (second compound 1 µM): < 6.00 | pIC50 (second compound 3.16 µM): < 6.00 | pIC50 (second compound 10 µM): < 6.00 | viability, T/C (second compound 0.0316 µM, first compound 0.00316 µM): 89.6% | viability, T/C (second compound 0.0316 µM, first compound 0.01 µM): 110% | viability, T/C [1]: 81.2% | viability, T/C [2]: 77.5% | viability, T/C [3]: 64.5% | viability, T/C [4]: 64.4% | viability, T/C (second compound 0.1 µM, first compound 0.00316 µM): 91.6% | viability, T/C (second compound 0.1 µM, first compound 0.01 µM): 106% | viability, T/C [5]: 84.1% | viability, T/C [6]: 69.3% | viability, T/C [7]: 72% | viability, T/C [8]: 73.5% | viability, T/C (second compound 0.316 µM, first compound 0.00316 µM): 106% | viability, T/C (second compound 0.316 µM, first compound 0.01 µM): 91.9% | viability, T/C [9]: 73.8% | viability, T/C [10]: 76.1% | viability, T/C [11]: 60.4% | viability, T/C [12]: 71.2% | viability, T/C (second compound 1 µM, first compound 0.00316 µM): 99.2% | viability, T/C (second compound 1 µM, first compound 0.01 µM): 95.9% | viability, T/C [13]: 74.5% | viability, T/C [14]: 66.5% | viability, T/C [15]: 61.9% | viability, T/C [16]: 60.8% | viability, T/C (second compound 3.16 µM, first compound 0.00316 µM): 120% | viability, T/C (second compound 3.16 µM, first compound 0.01 µM): 101% | viability, T/C [17]: 73.2% | viability, T/C [18]: 72.8% | viability, T/C [19]: 70.2% | viability, T/C [20]: 61% | viability, T/C (second compound 10 µM, first compound 0.00316 µM): 94.6% | viability, T/C (second compound 10 µM, first compound 0.01 µM): 95% | viability, T/C [21]: 87.8% | viability, T/C [22]: 67.3% | viability, T/C [23]: 62.1% | viability, T/C [24]: 68.9%

O=C(c1cc(Cc2n[nH]c(=O)c3ccccc23)ccc1F)N1CCN(C(=O)C2CC2)CC1 + Nc1ccc(C#CCN(C(=O)Cc2ncc(C(F)(F)F)cc2C(F)(F)F)c2ccc(F)cc2)nn1
pIC50 (second compound 0.0316 µM): < 5.00 | pIC50 (second compound 0.1 µM): < 5.00 | pIC50 (second compound 0.316 µM): < 5.00 | pIC50 (second compound 1 µM): < 5.00 | pIC50 (second compound 3.16 µM): < 5.00 | pIC50 (second compound 10 µM): < 5.00 | viability, T/C [1]: 105% | viability, T/C [2]: 103% | viability, T/C [3]: 115% | viability, T/C [4]: 94.1% | viability, T/C (second compound 0.0316 µM, first compound 3.16 µM): 108% | viability, T/C (second compound 0.0316 µM, first compound 10 µM): 89% | viability, T/C [5]: 96.6% | viability, T/C [6]: 88.2% | viability, T/C [7]: 97.6% | viability, T/C [8]: 92.9% | viability, T/C (second compound 0.1 µM, first compound 3.16 µM): 105% | viability, T/C (second compound 0.1 µM, first compound 10 µM): 89.5% | viability, T/C [9]: 124% | viability, T/C [10]: 92.8% | viability, T/C [11]: 77.1% | viability, T/C [12]: 100% | viability, T/C (second compound 0.316 µM, first compound 3.16 µM): 80.6% | viability, T/C (second compound 0.316 µM, first compound 10 µM): 99.4% | viability, T/C [13]: 90.1% | viability, T/C [14]: 106% | viability, T/C [15]: 91.9% | viability, T/C [16]: 97.7% | viability, T/C (second compound 1 µM, first compound 3.16 µM): 85.7% | viability, T/C (second compound 1 µM, first compound 10 µM): 87% | viability, T/C [17]: 92.7% | viability, T/C [18]: 83.9% | viability, T/C [19]: 91% | viability, T/C [20]: 106% | viability, T/C (second compound 3.16 µM, first compound 3.16 µM): 106% | viability, T/C (second compound 3.16 µM, first compound 10 µM): 98.4% | viability, T/C [21]: 110% | viability, T/C [22]: 99.7% | viability, T/C [23]: 96.3% | viability, T/C [24]: 97.7% | viability, T/C (second compound 10 µM, first compound 3.16 µM): 77% | viability, T/C (second compound 10 µM, first compound 10 µM): 81.8%
